Experimental data from patent US10031417B2, “Compound, colorant including the same, positive photosensitive resin composition including the same and color filter” (SAMSUNG SDI CO., LTD., priority 2016, dated 2018).

Experiment: Solubility measurement in diluting solvents
Format: physicochemical
Conditions: 25° C., 100 rpm, 1 hour, 0.5 g of compound added
Protocol: 0.5 g of each compound according to Synthesis Examples 1 to 3 was respectively added to diluting solvents (MeOH, CH2Cl2, cyclohexanone), each solution was stirred with a rotary mixer (Mixrotar VMR-5, Iuchi Seieido Co., Ltd.) at 25° C. and 100 rpm for 1 hour, and then, the dissolution state of each compound (the amount of the compound dissolved in the solvents) was examined, and the results are provided in Table 1.

| Structure (SMILES) | Amount of dissolved compound (CH2Cl2) [% wt %] | Amount of dissolved compound (Cyclohexanone) [% wt %] | Amount of dissolved compound (MeOH) [% wt %] |
| --- | --- | --- | --- |
| CCN(CCOC(=O)NC(C)(C)C)c1ccc2c(-c3ccccc3S(=O)(=O)[O-])c3ccc(=[N+](CC)CC)cc-3oc2c1 [Chemical Formula 5] | >7 | 3 | >7 |
| CCN(CCOC(=O)Nc1ccccc1)c1ccc2c(-c3ccccc3S(=O)(=O)[O-])c3ccc(=[N+](CC)CC)cc-3oc2c1 [Chemical Formula 7] | >7 | 2 | >7 |

Next, values leading:

| Amount of dissolved compound (CH2Cl2) [% wt %] | Amount of dissolved compound (Cyclohexanone) [% wt %] | Amount of dissolved compound (MeOH) [% wt %] | Structure (SMILES) |
| --- | --- | --- | --- |
| >7 | 3 | >7 | CCN(CCOC(=O)NC1CCCCC1)c1ccc2c(-c3ccccc3S(=O)(=O)[O-])c3ccc(=[N+](CC)CC)cc-3oc2c1 [Chemical Formula 6] |
| >10 | 5 | >10 | CCN(CCOC(=O)NC(C)(C)C)c1ccc2c(-c3ccccc3S(=O)(=O)[O-])c3cc/c(=[N+](/CC)CCOC(=O)NC(C)(C)C)cc-3oc2c1 [Chemical Formula 8] |
| >10 | 5 | >10 | CCN(CCOC(=O)NC1CCCCC1)c1ccc2c(-c3ccccc3S(=O)(=O)[O-])c3cc/c(=[N+](/CC)CCOC(=O)NC4CCCCC4)cc-3oc2c1 [Chemical Formula 9] |
| >10 | 3 | >10 | CCN(CCOC(=O)Nc1ccccc1)c1ccc2c(-c3ccccc3S(=O)(=O)[O-])c3cc/c(=[N+](/CC)CCOC(=O)Nc4ccccc4)cc-3oc2c1 [Chemical Formula 10] |
